# Data published in patent US11040028B2, “Penicinotam derivative, preparation method and use thereof” (OCEAN UNIVERSITY OF CHINA, priority 2017, dated 2021).
# Legend:
# Assay type in all cases: cell-based
# BHK-21 cells = assay: Anti-fibrosis activity test: inhibition of BHK-21 cell proliferation (CCK-8); conditions: Mesocricetus auratus, BHK-21, 48 h
# Method in brief: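 Cells seeded at 2×10^4 cells/mL, allowed to adhere 24 hours, then exposed to graded compound concentrations in triplicate for 48 hours at 37° C, 5% CO2. CCK-8 added for 2 hours, absorbance read at 450 nm; inhibition versus blank control used to derive IC50. Pirfenidone served as positive control.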
# [1] = test system: human lung fibroblasts HFL1; assay: Anti-fibrosis activity test: inhibition of proliferation of human lung fibroblasts HFL1 (CCK-8); conditions: Homo sapiens, HFL1, 48 h
# Method in brief: (§1)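 A CCK-8 proliferation assay was run: cells at 2×10^4 cells/mL, adherent for 24 h, then incubated 48 h at 37° C with compound dilutions. A450 was recorded 2 h after CCK-8 addition and converted to percent inhibition versus blank for IC50 determination.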
# [2] = test system: human hepatic stellate cells LX-2; assay: Anti-fibrosis activity test: inhibition of proliferation of human hepatic stellate cells LX-2 (CCK-8); conditions: Homo sapiens, 48 h
# Method in brief: as §1
# [3] = test system: human fibrosarcoma cells HT-1080; assay: Anti-fibrosis activity test: inhibition of proliferation of human fibrosarcoma cells HT-1080 (CCK-8); conditions: Homo sapiens, HT-1080, 48 h
# Method in brief: as §1
# [4] = test system: human dermal fibroblasts CCC-ESF-1; assay: Anti-fibrosis activity test: inhibition of proliferation of human dermal fibroblasts CCC-ESF-1 (CCK-8); conditions: Fibroblast
# Method in brief: as §1
# [5] = test system: human embryonic lung fibroblast IMR-90; assay: Anti-fibrosis activity test: inhibition of proliferation of human embryonic lung fibroblast IMR-90 (CCK-8)
# Method in brief: as §1
# [6] = test system: cardiac fibroblast RAT-iCell-C002; assay: Anti-fibrosis activity test: inhibition of proliferation of cardiac fibroblast RAT-iCell-C002 (CCK-8); conditions: Cardiac fibroblast, 48 h
# Method in brief: as §1
# NF-κB = assay: Immunological activity test: inhibition of NF-κB activity; conditions: initial concentration of 30 μM; a/b isomers given as first/second symbol; read-out: IC50 (μM), inhibitory activity against NF-κB
# Method in brief: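 Compounds were first screened for inhibition of NF-κB activity at 30 μM, with parthenolide as the positive control. IC50 values were then determined for the compounds by further analysis of the assay data.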
# [7] = test system: mouse macrophages (RAW264.7); assay: Lipopolysaccharide-induced NO secretion in macrophages (Griess); conditions: Mus musculus, RAW264.7, 24 h, RAW264.7, LPS 1 μg/ml, a/b isomers given as first/second symbol, read-out: IC50 (μM), inhibition of lipopolysaccharide-induced NO secretion in macrophages
# Method in brief: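 Absorbance at 548 nm after Griess reagent addition to culture supernatant gave NO content; inhibition rate was derived relative to blank control. Cells were mouse RAW264.7 macrophages exposed to compounds and 1 μg/ml LPS for 24 hours.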
# [8] = Homo sapiens, CCC-ESF-1 cells, 48 h, CCK-8
# [9] = Homo sapiens, IMR-90 cells, 48 h, CCK-8
# [10] = CCK-8, 48 hours after administration
# [11] = human lung fibroblasts HFL1, CCK-8, 48 hours
# [12] = human hepatic stellate cells LX-2, CCK-8, 48 hours
# [13] = human fibrosarcoma cells HT-1080, CCK-8, 48 hours
# [14] = human dermal fibroblasts CCC-ESF-1, CCK-8, 48 hours
# [15] = human embryonic lung fibroblast IMR-90, CCK-8, 48 hours
# [16] = cardiac fibroblast RAT-iCell-C002, CCK-8, 48 hours
"IC50 ([3]; HT-1080 cells, 48 h, CCK-8) [mM]",IC50 (NF-κB) [µM],IC50 [7] [µM],"IC50 [3, 13] [mM]",Structure (SMILES),"IC50 (BHK-21 cells; 48 h, CCK-8) [mM]","IC50 ([1]; HFL1 cells, 48 h, CCK-8) [mM]","IC50 ([2]; LX-2, 48 h, LX-2 cells, CCK-8) [mM]","IC50 [4, 8] [mM]","IC50 [5, 9] [mM]","IC50 ([6]; RAT-iCell-C002 cells, CCK-8) [mM]",IC50 (BHK-21 cells; [10]) [mM],"IC50 [1, 11] [mM]","IC50 [2, 12] [mM]","IC50 [4, 14] [mM]","IC50 [5, 15] [mM]","IC50 [6, 16] [mM]"
–,1 to 10,1 to 10,0.05 to 5,"O=C1c2c(nc3ccccc3c2OCCF)-c2cccn21 [Compound 653b, 9-(2-fluoroethoxy)-10H-pyrrolizino[1,2-b]quinolin-10-one]",–,–,–,–,–,–,0.05 to 5,0.05 to 5,0.05 to 5,0.05 to 5,0.05 to 5,0.05 to 5
–,1 to 10,10 to 50,< 0.05,"O=C1c2c(n(Cc3c(Cl)cccc3Cl)c3ccccc3c2=O)-c2cccn21 [Compound 614a, 4-(2,6-Dichlorobenzyl)-9H-pyrrolizino[1,2-b]quinoline-9,10(4H)-dione]",–,–,–,–,–,–,0.05 to 5,0.05 to 5,0.05 to 5,0.05 to 5,0.05 to 5,0.05 to 5
–,10 to 50,1 to 10,0.05 to 5,"O=C1c2c(nc3cccc(Cl)c3c2OCc2ccc(Cl)cc2)-c2cccn21 [Compound 477b, 8-chloro-9-((4-chlorobenzyl)oxy)-10H-pyrrolizino[1,2-b]quinolin-10-one]",–,–,–,–,–,–,0.05 to 5,0.05 to 5,0.05 to 5,0.05 to 5,0.05 to 5,0.05 to 5
–,1 to 10,10 to 50,0.05 to 5,"O=C1c2c(nc3ccccc3c2OCc2c(Cl)cccc2Cl)-c2cccn21 [Compound 614b, 9-((2,6-dichlorobenzyl)oxy)-10H-pyrrolizino[1,2-b]quinolin-10-one]",–,–,–,–,–,–,0.05 to 5,0.05 to 5,0.05 to 5,0.05 to 5,0.05 to 5,0.05 to 5
0.05 to 5,1 to 10,1 to 10,–,"CCOCCCOc1c2c(nc3ccccc13)-c1cccn1C2=O [Compound 672b, 9-(3-ethoxypropoxy)-10H-pyrrolizino[1,2-b]quinolin-10-one]",0.05 to 5,0.05 to 5,0.05 to 5,0.05 to 5,0.05 to 5,0.05 to 5,–,–,–,–,–,–

# Second part, the compound before the results:
Structure (SMILES),"IC50 ([3]; HT-1080 cells, 48 h, CCK-8) [mM]",IC50 (NF-κB) [µM],IC50 [7] [µM],"IC50 [3, 13] [mM]","IC50 (BHK-21 cells; 48 h, CCK-8) [mM]","IC50 ([1]; HFL1 cells, 48 h, CCK-8) [mM]","IC50 ([2]; LX-2, 48 h, LX-2 cells, CCK-8) [mM]","IC50 [4, 8] [mM]","IC50 [5, 9] [mM]","IC50 ([6]; RAT-iCell-C002 cells, CCK-8) [mM]",IC50 (BHK-21 cells; [10]) [mM],"IC50 [1, 11] [mM]","IC50 [2, 12] [mM]","IC50 [4, 14] [mM]","IC50 [5, 15] [mM]","IC50 [6, 16] [mM]"
"O=C1c2c(n(Cc3ccccc3[N+](=O)[O-])c3ccccc3c2=O)-c2cccn21 [Compound 668a, 4-(2-Nitrobenzyl)-9H-pyrrolizino[1,2-b]quinoline-9,10(4H)-dione]",0.05 to 5,0.1 to 1,1 to 10,–,0.05 to 5,0.05 to 5,0.05 to 5,0.05 to 5,0.05 to 5,0.05 to 5,–,–,–,–,–,–
"O=C1c2c(nc3ccccc3c2OCCCCN2CCCCC2)-c2cccn21 [Compound 667b, 9-(4-(piperidin-1-yl)butoxy)-10H-pyrrolizino[1,2-b]quinolin-10-one]",0.05 to 5,1 to 10,1 to 10,–,0.05 to 5,0.05 to 5,0.05 to 5,0.05 to 5,0.05 to 5,0.05 to 5,–,–,–,–,–,–
"N#Cc1cccc2c1c(=O)c1c(n2Cc2ccc(F)cc2)-c2cccn2C1=O [Compound 462a, 4-(4-Fluorobenzyl)-9,10-dioxo-4,10-dihydro-9H-pyrrolizino[1,2-b]quinoline-8-carbonitrile]",–,0.1 to 1,1 to 10,0.05 to 5,–,–,–,–,–,–,< 0.05,0.05 to 5,0.05 to 5,0.05 to 5,0.05 to 5,0.05 to 5
"O=C1c2c(nc3c(F)cccc3c2O)-c2cccn21 [Compound 444b, 5-fluoro-9-hydroxy-10H-pyrrolizino[1,2-b]quinolin-10-one]",–,1 to 10,1 to 10,0.05 to 5,–,–,–,–,–,–,0.05 to 5,0.05 to 5,0.05 to 5,0.05 to 5,0.05 to 5,0.05 to 5
"O=C1c2c(n(Cc3ccc(-c4ccccc4)cc3)c3ccccc3c2=O)-c2cccn21 [Compound 649a, 4-([1,1′-Biphenyl]-4-ylmethyl)-9H-pyrrolizino[1,2-b]quinoline-9,10(4H)-dione]",–,0.1 to 1,10 to 50,0.05 to 5,–,–,–,–,–,–,0.05 to 5,0.05 to 5,0.05 to 5,0.05 to 5,0.05 to 5,0.05 to 5
